Assays:
S. aureus = experiment: MIC determination, Macro-broth dilution method (NCCLS); format: cell-based, Staphylococcus aureus
Excerpt: (§1) The in-vitro potency was established by minimum inhibitory concentration (MIC) determinations of the compounds of Formula I(a) and Formula I(b) against bacterial strains, by using the Macro-broth dilution method as per National Committee for Clinical Laboratory Standards (2000) guidelines (Methods for Dilution Antimicrobial Susceptibility Tests for Bacteria that Grow Aerobically—Fifth Edition: Approved Standard M7-A5. NCCLS, Wayne, Pa., USA). Mueller-Hinton broth was used as nutrient medium for the assay, unless stated otherwise. PM181104 (PCT publication no. WO2007119201) was used as known standard in all in-vitro experiments. For preparation of the stock solution the compounds of Formula I(a) and Formula I(b) were dissolved in chloroform (5% of the total required volume) and diluted using methanol (95% of the total required volume).

E. faecium = experiment: as above; format: cell-based, Enterococcus faecium; settings: for Minimal Inhibitory Concentration: E. faecium, R-2 (VRE) (Table 5)
Excerpt: as §1

M. tuberculosis H37Rv = experiment: Antimycobacterial activity, Luciferase reporter phage assay; format: cell-based, Mycobacterium tuberculosis; settings: 72 hours
[1] = Solubility (physical properties)
Bacillus cereus (121) = experiment: MIC determination, Macro-broth dilution method (NCCLS); format: cell-based
Excerpt: as §1

[2] = test system: Bacillus megaterium FH1127 (124); experiment: as above; format: cell-based
Excerpt: as §1

[3] = test system: Bacillus subtilis ATCC 6633 (123); experiment: as above; format: cell-based
Excerpt: as §1

S. epidermidis = experiment: as above; format: cell-based, Staphylococcus epidermidis
Excerpt: as §1

[4] = S. aureus 209P (MSSA) (Table 5)
[5] = S. aureus E710, (MRSA) (Table 5)
[6] = in chloroform, ethyl acetate, methanol

## C=C(NC(=O)c1csc(C2=NC3c4csc(n4)C4NC(=O)c5csc(n5)C(C(C)(O)C(C)O)NC(=O)C5CSC(=N5)/C(=C\C)NC(=O)C(C(C)O)NC(=O)c5csc(n5)C3(CC2)NC(=O)C(C)NC(=O)C(=C)NC(=O)C(C)NC(=O)C(C(C)C)NC2C=Cc3c(C(C)O)cc(nc3C2O)C(=O)OC4C)n1)C(=O)NC(C)C(N)=O (stereo not shown) [Compound of Formula I(b)]
S. aureus; [4]
  Minimal Inhibitory Concentration: 0.25 to 0.5 µg/mL
S. aureus; [5]
  Minimal Inhibitory Concentration: 2 µg/mL
E. faecium
  Minimal Inhibitory Concentration: 2 µg/mL
M. tuberculosis H37Rv; 0.5 μg/mL
  % reduction in RLU: 28.87%
M. tuberculosis H37Rv; 5 μg/mL
  % reduction in RLU: 54.83%
M. tuberculosis H37Rv; 10 μg/mL
  % reduction in RLU: 76.73%
[1]; [6]
  Solubility: Soluble
[1]; in water
  Solubility: insoluble

## C=C(NC(=O)C(=C)NC(=O)c1csc(C2=NC3c4csc(n4)C4NC(=O)c5csc(n5)C(C(C)(O)C(C)O)NC(=O)C5CSC(=N5)/C(=C\C)NC(=O)C(C(C)O)NC(=O)c5csc(n5)C3(CC2)NC(=O)C(C)NC(=O)C(=C)NC(=O)C(C)NC(=O)C(C(C)C)NC2C=Cc3c(C(C)O)cc(nc3C2O)C(=O)OC4C)n1)C(N)=O (stereo not shown) [Compound of Formula I(a)]
S. aureus; [4]
  Minimal Inhibitory Concentration: 0.064 to 0.125 µg/mL
S. aureus; S. aureus 209 P, MSSA (Table 4)
  MIC: 0.063 µg/mL
S. aureus; S. aureus 503, MRSA, 62
  MIC: >1 µg/mL
S. aureus; S. aureus 789, MRSA, 64
  MIC: >1 µg/mL
S. aureus; S. aureus ATCC 33591, MRSA
  MIC: 0.125 µg/mL
S. aureus; S. aureus C1 MRSA 2
  MIC: 0.25 µg/mL
S. aureus; S. aureus C1 MRSA 3
  MIC: 0.25 µg/mL
S. aureus; S. aureus C1 MRSA 5
  MIC: 0.25 µg/mL
S. aureus; S. aureus C1 MRSA 7
  MIC: 0.125 µg/mL
S. aureus; S. aureus C1 MRSA 8
  MIC: 0.25 µg/mL
S. aureus; S. aureus C1 MRSA 9
  MIC: 0.25 µg/mL
S. aureus; S. aureus C1 MRSA 10
  MIC: 0.25 µg/mL
S. aureus; S. aureus C1 MRSA 13
  MIC: 0.25 µg/mL
S. aureus; S. aureus C1 MRSA 16
  MIC: 0.25 µg/mL
S. aureus; S. aureus C1 MRSA 17
  MIC: 0.125 µg/mL
S. aureus; S. aureus C1 MRSA 20
  MIC: 0.125 µg/mL
S. aureus; S. aureus C1 MRSA 21
  MIC: 0.125 µg/mL
S. aureus; S. aureus C1 MRSA 22
  MIC: 0.25 µg/mL
S. aureus; S. aureus C1 MRSA 23
  MIC: 0.016 µg/mL
S. aureus; S. aureus C1 MRSA 24
  MIC: 0.25 µg/mL
S. aureus; S. aureus C1 MRSA 25
  MIC: 0.15 µg/mL
S. aureus; [5]
  Minimal Inhibitory Concentration: 0.125 µg/mL
S. aureus; S. aureus E710, MRSA (Table 4)
  MIC: 0.125 µg/mL
S. aureus; S. aureus E712, MRSA Erythro^R, 59
  MIC: 0.25 µg/mL
S. aureus; S. aureus KEM MRSA 1
  MIC: 0.25 µg/mL
S. aureus; S. aureus KEM MRSA 2
  MIC: 0.25 µg/mL
S. aureus; S. aureus KEM MRSA 3
  MIC: 0.25 µg/mL
S. aureus; S. aureus KEM MRSA 4
  MIC: 0.125 µg/mL
S. aureus; S. aureus KEM MRSA 5
  MIC: 0.125 µg/mL
S. aureus; S. aureus MRSA 3 lilavati
  MIC: 0.125 µg/mL
S. aureus; S. aureus Misk MRSA 35
  MIC: 0.125 µg/mL
S. aureus; S. aureus Misk MRSA 37
  MIC: 0.125 µg/mL
S. aureus; S. aureus Misk MRSA 38
  MIC: 0.125 µg/mL
S. aureus; S. aureus SG 511, MRSA, 63
  MIC: 1 µg/mL
E. faecium; E. faecium C1 VRE 26
  MIC: 0.25 µg/mL
E. faecium; E. faecium C1 VRE 27
  MIC: 0.25 µg/mL
E. faecium; E. faecium C1 VRE 28
  MIC: 0.125 µg/mL
E. faecium; E. faecium C1 VRE 31
  MIC: 0.5 µg/mL
E. faecium; E. faecium C1 VRE 33
  MIC: 0.125 µg/mL
E. faecium; E. faecium C1 VRE 34
  MIC: 0.25 µg/mL
E. faecium; E. faecium KEM VRE 1
  MIC: 0.25 µg/mL
E. faecium; E. faecium KEM VRE 2
  MIC: 0.5 µg/mL
E. faecium; E. faecium KEM VRE 3
  MIC: 0.25 µg/mL
E. faecium; E. faecium KEM VRE 4
  MIC: 0.5 µg/mL
E. faecium; E. faecium KEM VRE 5
  MIC: 0.25 µg/mL
E. faecium; E. faecium R-2 (VRE) (Table 4)
  MIC: 0.25 µg/mL
E. faecium
  Minimal Inhibitory Concentration: 0.125 µg/mL
E. faecium; Enterococcus faecium, VSE (322)
  MIC: 0.125 µg/mL
M. tuberculosis H37Rv; 0.5 μg/mL
  % reduction in RLU: 36.36%
M. tuberculosis H37Rv; 5 μg/mL
  % reduction in RLU: 77.17%
M. tuberculosis H37Rv; 10 μg/mL
  % reduction in RLU: 83.76%
Bacillus cereus (121)
  MIC: 0.031 µg/mL
[2]
  MIC: 0.125 µg/mL
[3]
  MIC: 0.031 µg/mL
S. epidermidis; S. epidermidis 823, Teicho^R, 230
  MIC: 0.25 µg/mL
S. epidermidis; S. epidermidis 2361 W, 246
  MIC: 0.25 µg/mL
S. epidermidis; S. epidermidis 4264 I (1) W, 247
  MIC: 0.125 µg/mL
S. epidermidis; S. epidermidis 6098, Erythro^R, 233
  MIC: >1 µg/mL
S. epidermidis; S. epidermidis 6729 II W, Erythro^R, 236
  MIC: 0.125 µg/mL
S. epidermidis; S. epidermidis Pat 01 IV, 251
  MIC: 0.25 µg/mL
[1]; [6]
  Solubility: Soluble
[1]; in water
  Solubility: insoluble

Reference: patent US10501492B2, “Antibiotic compounds” (priority 2009, dated 2019)
